According to the kinase profiling compilation of Christmann-Franck et al. (2016):

Experiments:
Experiment in all cases: radiometric filter-binding kinase assay, Kinaseprofiler
[1] = molecular target: CSNK1G1 (human) (UniProt Q9HCP0); conditions: ATP 15 µM
[2] = molecular target: INSR (human) (UniProt P06213)
[3] = molecular target: FLT1 (human) (UniProt P17948); conditions: ATP 200 µM
[4] = molecular target: MARK2 (human) (UniProt Q7KZI7); conditions: ATP 15 µM
[5] = molecular target: TXK (human) (UniProt P42681); conditions: ATP 200 µM
[6] = molecular target: FGFR3 (human) (UniProt P22607); conditions: ATP 15 µM
[7] = molecular target: EPHA2 (human) (UniProt P29317); conditions: ATP 155 µM
[8] = molecular target: STK11 (human) (UniProt Q15831); conditions: ATP 155 µM
[9] = molecular target: CDC42BPA (human) (UniProt Q5VT25); conditions: ATP 45 µM
[10] = molecular target: STK4 (human) (UniProt Q13043); conditions: ATP 90 µM
[11] = molecular target: PRKCD (human) (UniProt Q05655); conditions: ATP 15 µM
[12] = molecular target: DAPK1 (human) (UniProt P53355); conditions: ATP 70 µM
[13] = molecular target: PRKCQ (human) (UniProt Q04759); conditions: ATP 15 µM
[14] = molecular target: TLK2 (human) (UniProt Q86UE8); conditions: ATP 10 µM
[15] = molecular target: ULK2 (human) (UniProt Q8IYT8); conditions: ATP 15 µM
[16] = molecular target: PRKD2 (human) (UniProt Q9BZL6); conditions: ATP 155 µM
[17] = molecular target: RPS6KA5 KD1 KD2 (human) (UniProt O75582); conditions: ATP 90 µM
[18] = molecular target: RPS6KA4 KD1 KD2 (human) (UniProt O75676); conditions: ATP 45 µM
[19] = molecular target: CDK2 CCNE1 (human) (UniProt P24941+P24864); conditions: ATP 120 µM
[20] = molecular target: WNK2 (human) (UniProt Q9Y3S1); conditions: ATP 200 µM
[21] = test system: AXL (human), P30530 [Q764R]; conditions: ATP 90 µM
[22] = test system: EEF2K (human), O00418 [H23R]; conditions: ATP 15 µM
[23] = molecular target: HIPK1 (human) (UniProt Q86Z02); conditions: ATP 45 µM
[24] = molecular target: CDK6 CCND3 (human) (UniProt P30281+Q00534); conditions: ATP 200 µM
[25] = molecular target: ULK3 (human) (UniProt Q6PHR2); conditions: ATP 10 µM
[26] = molecular target: CAMK2G (human) (UniProt Q13555); conditions: ATP 10 µM
[27] = molecular target: SGK3 (human) (UniProt Q96BR1); conditions: ATP 155 µM
[28] = molecular target: PRKCB2 (human) (UniProt P05771); conditions: ATP 10 µM
[29] = molecular target: NEK2 (human) (UniProt P51955); conditions: ATP 120 µM
[30] = molecular target: FGFR4 (human) (UniProt P22455); conditions: ATP 155 µM
[31] = molecular target: PLK1 (human) (UniProt P53350); conditions: ATP 70 µM
[32] = molecular target: NEK6 (human) (UniProt Q9HC98); conditions: ATP 45 µM

Chain of INSR (human) (P06213 whole entry, looked up): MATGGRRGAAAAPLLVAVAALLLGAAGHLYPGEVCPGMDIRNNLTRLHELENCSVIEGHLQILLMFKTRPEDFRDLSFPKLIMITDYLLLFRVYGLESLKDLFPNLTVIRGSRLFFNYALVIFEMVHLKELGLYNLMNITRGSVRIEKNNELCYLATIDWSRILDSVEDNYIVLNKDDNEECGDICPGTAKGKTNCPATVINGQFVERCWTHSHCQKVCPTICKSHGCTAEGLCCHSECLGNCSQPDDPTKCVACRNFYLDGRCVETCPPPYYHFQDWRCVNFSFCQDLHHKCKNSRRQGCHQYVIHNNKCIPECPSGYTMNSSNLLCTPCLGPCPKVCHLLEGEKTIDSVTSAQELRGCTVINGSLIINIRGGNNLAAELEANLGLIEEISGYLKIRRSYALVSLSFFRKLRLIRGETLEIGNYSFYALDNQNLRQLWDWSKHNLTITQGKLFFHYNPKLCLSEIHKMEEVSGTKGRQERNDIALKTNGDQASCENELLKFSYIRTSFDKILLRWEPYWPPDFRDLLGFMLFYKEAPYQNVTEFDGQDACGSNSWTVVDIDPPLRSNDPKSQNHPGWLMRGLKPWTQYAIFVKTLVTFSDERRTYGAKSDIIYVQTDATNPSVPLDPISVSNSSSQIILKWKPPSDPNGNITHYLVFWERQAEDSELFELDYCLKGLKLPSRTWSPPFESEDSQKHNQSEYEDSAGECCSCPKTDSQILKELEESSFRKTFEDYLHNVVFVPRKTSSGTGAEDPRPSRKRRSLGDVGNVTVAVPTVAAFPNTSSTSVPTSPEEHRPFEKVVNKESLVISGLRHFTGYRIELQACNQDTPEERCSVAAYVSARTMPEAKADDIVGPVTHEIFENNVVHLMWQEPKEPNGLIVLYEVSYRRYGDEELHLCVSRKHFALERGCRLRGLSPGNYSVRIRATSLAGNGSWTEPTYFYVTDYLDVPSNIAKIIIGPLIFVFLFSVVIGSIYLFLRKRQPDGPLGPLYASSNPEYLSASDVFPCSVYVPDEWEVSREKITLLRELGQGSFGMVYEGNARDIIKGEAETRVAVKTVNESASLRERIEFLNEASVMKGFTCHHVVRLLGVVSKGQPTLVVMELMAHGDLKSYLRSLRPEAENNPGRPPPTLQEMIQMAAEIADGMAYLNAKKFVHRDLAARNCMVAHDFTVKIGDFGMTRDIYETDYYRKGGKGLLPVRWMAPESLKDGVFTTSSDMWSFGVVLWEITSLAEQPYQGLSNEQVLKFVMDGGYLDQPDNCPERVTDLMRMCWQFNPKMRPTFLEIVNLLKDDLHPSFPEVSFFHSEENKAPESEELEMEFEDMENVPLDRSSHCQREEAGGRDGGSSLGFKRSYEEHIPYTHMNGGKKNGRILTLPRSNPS
Chain of STK11 (human) (Q15831 whole entry, looked up): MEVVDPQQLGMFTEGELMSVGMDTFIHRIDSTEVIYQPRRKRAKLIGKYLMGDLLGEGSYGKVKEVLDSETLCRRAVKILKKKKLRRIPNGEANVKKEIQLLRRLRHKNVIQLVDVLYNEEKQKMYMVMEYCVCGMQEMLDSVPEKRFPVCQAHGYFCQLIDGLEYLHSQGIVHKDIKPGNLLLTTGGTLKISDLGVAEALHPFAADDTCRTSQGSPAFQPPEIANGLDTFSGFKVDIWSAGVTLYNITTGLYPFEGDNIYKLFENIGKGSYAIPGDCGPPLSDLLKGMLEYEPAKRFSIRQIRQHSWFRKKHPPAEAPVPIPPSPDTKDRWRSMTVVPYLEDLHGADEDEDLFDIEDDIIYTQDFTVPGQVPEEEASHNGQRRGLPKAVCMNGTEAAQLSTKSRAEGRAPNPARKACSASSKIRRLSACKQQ
Chain of AXL (human), P30530 [Q764R] (P30530 whole entry Q764R, looked up): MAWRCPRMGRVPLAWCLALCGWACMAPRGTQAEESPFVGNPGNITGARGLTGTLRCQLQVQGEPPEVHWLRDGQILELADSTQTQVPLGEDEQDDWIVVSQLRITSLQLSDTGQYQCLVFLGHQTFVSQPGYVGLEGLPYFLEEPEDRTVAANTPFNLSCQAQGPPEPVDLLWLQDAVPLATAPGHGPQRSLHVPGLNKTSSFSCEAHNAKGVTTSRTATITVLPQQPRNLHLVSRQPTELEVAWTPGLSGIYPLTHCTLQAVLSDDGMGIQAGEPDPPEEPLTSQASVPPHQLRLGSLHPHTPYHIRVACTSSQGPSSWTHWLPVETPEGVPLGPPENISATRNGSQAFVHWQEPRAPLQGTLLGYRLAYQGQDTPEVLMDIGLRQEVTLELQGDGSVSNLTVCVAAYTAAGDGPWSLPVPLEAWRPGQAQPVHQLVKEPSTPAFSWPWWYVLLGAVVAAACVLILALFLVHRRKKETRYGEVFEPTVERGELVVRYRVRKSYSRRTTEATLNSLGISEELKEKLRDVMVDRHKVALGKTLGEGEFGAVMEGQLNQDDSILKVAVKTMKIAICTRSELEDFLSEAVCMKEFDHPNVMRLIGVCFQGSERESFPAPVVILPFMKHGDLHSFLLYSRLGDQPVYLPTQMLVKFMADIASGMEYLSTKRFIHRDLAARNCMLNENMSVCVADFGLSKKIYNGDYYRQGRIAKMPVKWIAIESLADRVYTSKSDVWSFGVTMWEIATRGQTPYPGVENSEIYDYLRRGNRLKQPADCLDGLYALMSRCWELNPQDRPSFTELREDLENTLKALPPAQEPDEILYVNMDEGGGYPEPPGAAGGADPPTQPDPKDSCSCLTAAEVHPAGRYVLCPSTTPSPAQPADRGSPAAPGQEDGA
Chain of EPHA2 (human) (P29317 whole entry, looked up): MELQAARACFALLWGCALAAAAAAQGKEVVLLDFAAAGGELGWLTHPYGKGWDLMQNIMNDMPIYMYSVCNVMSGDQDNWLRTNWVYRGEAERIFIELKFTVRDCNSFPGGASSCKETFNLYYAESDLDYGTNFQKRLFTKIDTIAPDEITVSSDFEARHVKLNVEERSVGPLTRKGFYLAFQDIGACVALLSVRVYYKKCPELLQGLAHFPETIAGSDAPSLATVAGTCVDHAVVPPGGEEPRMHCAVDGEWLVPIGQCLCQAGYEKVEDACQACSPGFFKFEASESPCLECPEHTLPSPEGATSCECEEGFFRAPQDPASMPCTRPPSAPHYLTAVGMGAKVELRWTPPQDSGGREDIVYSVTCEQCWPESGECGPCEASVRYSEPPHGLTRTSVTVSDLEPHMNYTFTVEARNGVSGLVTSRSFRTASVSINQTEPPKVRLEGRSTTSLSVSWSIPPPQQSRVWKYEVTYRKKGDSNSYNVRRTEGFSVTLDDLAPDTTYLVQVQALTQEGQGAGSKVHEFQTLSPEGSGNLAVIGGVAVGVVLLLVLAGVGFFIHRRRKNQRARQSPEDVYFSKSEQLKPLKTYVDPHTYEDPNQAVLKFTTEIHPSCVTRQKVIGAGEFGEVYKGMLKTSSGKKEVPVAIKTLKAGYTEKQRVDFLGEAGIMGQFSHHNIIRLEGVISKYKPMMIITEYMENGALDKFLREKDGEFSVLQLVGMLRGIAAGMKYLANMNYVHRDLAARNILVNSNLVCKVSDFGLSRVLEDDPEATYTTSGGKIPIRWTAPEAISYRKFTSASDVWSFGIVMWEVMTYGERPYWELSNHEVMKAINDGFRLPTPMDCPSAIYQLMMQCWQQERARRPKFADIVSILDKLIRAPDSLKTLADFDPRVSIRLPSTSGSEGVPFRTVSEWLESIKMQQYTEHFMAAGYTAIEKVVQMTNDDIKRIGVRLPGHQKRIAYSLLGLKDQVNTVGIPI
Chain of RPS6KA5 KD1 KD2 (human) (O75582 whole entry, looked up): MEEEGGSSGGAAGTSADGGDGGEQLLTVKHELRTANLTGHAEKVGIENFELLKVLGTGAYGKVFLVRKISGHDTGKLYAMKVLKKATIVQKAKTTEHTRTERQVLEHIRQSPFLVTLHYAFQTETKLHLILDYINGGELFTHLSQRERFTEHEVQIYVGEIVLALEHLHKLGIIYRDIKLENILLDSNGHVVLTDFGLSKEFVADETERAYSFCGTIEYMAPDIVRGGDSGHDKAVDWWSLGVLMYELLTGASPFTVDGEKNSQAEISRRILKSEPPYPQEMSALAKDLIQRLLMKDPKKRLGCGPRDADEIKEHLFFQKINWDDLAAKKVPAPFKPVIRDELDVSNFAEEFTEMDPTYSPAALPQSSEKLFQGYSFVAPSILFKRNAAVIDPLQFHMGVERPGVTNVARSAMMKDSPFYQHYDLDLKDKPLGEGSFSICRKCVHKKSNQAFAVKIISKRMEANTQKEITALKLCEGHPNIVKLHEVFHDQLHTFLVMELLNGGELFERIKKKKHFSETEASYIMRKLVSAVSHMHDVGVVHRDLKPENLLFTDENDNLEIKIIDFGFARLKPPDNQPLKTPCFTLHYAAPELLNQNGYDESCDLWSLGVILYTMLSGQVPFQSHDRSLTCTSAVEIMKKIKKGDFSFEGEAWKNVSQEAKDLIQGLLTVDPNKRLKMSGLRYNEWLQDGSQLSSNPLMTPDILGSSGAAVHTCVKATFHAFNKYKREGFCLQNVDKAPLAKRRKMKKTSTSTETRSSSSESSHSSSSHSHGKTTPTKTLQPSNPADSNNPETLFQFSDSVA
Chain of SGK3 (human) (Q96BR1 whole entry, looked up): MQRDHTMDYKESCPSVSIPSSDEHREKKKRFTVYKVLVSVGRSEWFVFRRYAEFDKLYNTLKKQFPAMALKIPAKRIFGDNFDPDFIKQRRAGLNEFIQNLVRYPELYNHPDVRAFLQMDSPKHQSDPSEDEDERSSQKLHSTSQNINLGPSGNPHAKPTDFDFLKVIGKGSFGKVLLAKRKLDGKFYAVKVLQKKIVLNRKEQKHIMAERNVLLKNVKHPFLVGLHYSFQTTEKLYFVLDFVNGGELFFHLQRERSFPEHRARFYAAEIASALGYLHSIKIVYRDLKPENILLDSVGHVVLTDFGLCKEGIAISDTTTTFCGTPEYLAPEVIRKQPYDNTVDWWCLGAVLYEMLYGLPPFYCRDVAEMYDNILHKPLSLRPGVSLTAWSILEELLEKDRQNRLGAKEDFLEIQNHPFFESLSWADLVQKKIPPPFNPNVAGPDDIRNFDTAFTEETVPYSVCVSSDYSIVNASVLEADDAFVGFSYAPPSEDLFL

residual activity ([1]; compound 1.0 µM): 57%
residual activity ([1]; compound 10.0 µM): 19%
residual activity ([2]; compound 1.0 µM, ATP 45 µM): 35%
residual activity ([2]; compound 1.0 µM, ATP 200 µM): 17%
residual activity ([2]; compound 10.0 µM, ATP 45 µM): 19%
residual activity ([2]; compound 10.0 µM, ATP 200 µM): 10%
residual activity ([3]; compound 1.0 µM): 1%
residual activity ([3]; compound 10.0 µM): 0%
residual activity ([4]; compound 1.0 µM): 48%
residual activity ([4]; compound 10.0 µM): 14%
residual activity ([5]; compound 1.0 µM): 45%
residual activity ([5]; compound 10.0 µM): 11%
residual activity ([6]; compound 1.0 µM): 20%
residual activity ([6]; compound 10.0 µM): 2%
residual activity ([7]; compound 1.0 µM): 61%
residual activity ([7]; compound 10.0 µM): 16%
residual activity ([8]; compound 1.0 µM): 83%
residual activity ([8]; compound 10.0 µM): 44%
residual activity ([9]; compound 1.0 µM): 142%
residual activity ([9]; compound 10.0 µM): 135%
residual activity ([10]; compound 1.0 µM): 8%
residual activity ([10]; compound 10.0 µM): 2%
residual activity ([11]; compound 1.0 µM): 85%
residual activity ([11]; compound 10.0 µM): 80%
residual activity ([12]; compound 1.0 µM): 91%
residual activity ([12]; compound 10.0 µM): 67%
residual activity ([13]; compound 1.0 µM): 81%
residual activity ([13]; compound 10.0 µM): 55%
residual activity ([14]; compound 1.0 µM): 60%
residual activity ([14]; compound 10.0 µM): 14%
residual activity ([15]; compound 1.0 µM): 93%
residual activity ([15]; compound 10.0 µM): 59%
residual activity ([16]; compound 1.0 µM): 109%
residual activity ([16]; compound 10.0 µM): 98%
residual activity ([17]; compound 1.0 µM): 61%
residual activity ([17]; compound 10.0 µM): 21%
residual activity ([18]; compound 1.0 µM): 32%
residual activity ([18]; compound 10.0 µM): 4%
residual activity ([19]; compound 1.0 µM): 6%
residual activity ([19]; compound 10.0 µM): -1%
residual activity ([20]; compound 1.0 µM): 90%
residual activity ([20]; compound 10.0 µM): 55%
residual activity ([21]; compound 1.0 µM): 17%
residual activity ([21]; compound 10.0 µM): 8%
residual activity ([22]; compound 1.0 µM): 109%
residual activity ([22]; compound 10.0 µM): 93%
residual activity ([23]; compound 1.0 µM): 90%
residual activity ([23]; compound 10.0 µM): 73%
residual activity ([24]; compound 1.0 µM): 16%
residual activity ([24]; compound 10.0 µM): 5%
residual activity ([25]; compound 1.0 µM): 55%
residual activity ([25]; compound 10.0 µM): 12%
residual activity ([26]; compound 1.0 µM): 12%
residual activity ([26]; compound 10.0 µM): 1%
residual activity ([27]; compound 1.0 µM): 89%
residual activity ([27]; compound 10.0 µM): 56%
residual activity ([28]; compound 1.0 µM): 95%
residual activity ([28]; compound 10.0 µM): 102%
residual activity ([29]; compound 1.0 µM): 93%
residual activity ([29]; compound 10.0 µM): 83%
residual activity ([30]; compound 1.0 µM): 100%
residual activity ([30]; compound 10.0 µM): 45%
residual activity ([31]; compound 1.0 µM): 83%
residual activity ([31]; compound 10.0 µM): 103%
residual activity ([32]; compound 1.0 µM): 91%
residual activity ([32]; compound 10.0 µM): 103%
Compound: O=C1Nc2ccccc2/C1=C1\Nc2ccccc2\C1=N/O
